Experimental data: US12692261B2, “Substituted heterocyclic compounds and therapeutic uses thereof” (Bayer Aktiengesellschaft, priority 2020, dated 2026)
pIC50: −log10 of the molar value. Like-named read-outs stand apart in the source and are kept apart here.

Assays:
Format in all cases: biochemical
[1] = molecular target: T1, full-length human CSNK1A1 (Homo sapiens, UniProt P48729); assay: CSNK1A1 Assay 2 (ADP-Glo, 1 μM ATP, substrate biotin-Ahx-KRRRAL-pS-VASLPGL); conditions: Table 3, read-out: CSNK1A1 Assay 2 IC50 [mol/l] (median)
T1 construct: N-terminal Glutathion-S-Transferase (GST) and full-length human CSNK1A1; purchased Life Technologies PV4174; host or cells: baculovirus infected insect cells
Description: CSNK1A1-inhibitory activity of compounds of the present invention in presence of 1 μM adenosine-tri-phosphate (ATP) was quantified employing the CSNK1A1 assay as described in the following paragraphs. In essence, the enzyme activity is measured by quantification of the adenosine-di-phosphate (ADP), which is generated as a co-product of the enzyme reaction, via the “ADP-Glo™ Kinase Assay” kit from the company Promega. This detection system works as follows: In a first step the ATP not consumed in the kinase reaction is quantitatively converted to cAMP employing an adenylate cyclase (“ADP-Glo-reagent”), then the adenylate cyclase is stopped and the ADP generated in the kinase reaction converted to ATP which generates in a luciferase-based reaction a glow-luminescence signal (“Kinase Detection Reagent”).
(§1) Recombinant fusion protein of N-terminal Glutathion-S-Transferase (GST) and full-length human CSNK1A1, expressed by baculovirus infected insect cells and purified via Glutathion affinity chromatography, was purchased from Life Technologies (product no. PV4174) and used as enzyme. As substrate for the kinase reaction the biotinylated peptide biotin-Ahx-KRRRAL-pS-VASLPGL (C-terminus in amide form) was used which can be purchased e.g. from the company Biosyntan (Berlin-Buch, Germany).
For the assay 50 nl of a 100 fold concentrated solution of the test compound in DMSO was pipetted into a white 1536-well microtiter plate (Greiner Bio-One, Frickenhausen, Germany), 2 μL of a solution of CSNK1A1 in aqueous assay buffer [50 mM HEPES pH 7.5, 10% (v/v) glycerol, 10 mM MgCl2, 50 mM NaCl, 1 mM dithiothreitol, 0.01% (w/v) bovine serum albumin, 0.01% (v/v) Triton X-100] were added and the mixture was incubated for 15 min at 22° C. to allow pre-binding of the test compounds to the enzyme before the start of the kinase reaction. […] The concentration of CSNK1A1 was adjusted depending of the activity of the enzyme lot and was chosen appropriate to have the assay in the linear range, a typical concentrations are about 0.0375 ng/μL. The reaction was stopped by the addition of 2.5 μL of “ADP-Glo-reagent” (1:1.5 fold diluted with water) and the resulting mixture was incubated at 22° C. for 1 h to convert the ATP not consumed in the kinase reaction completely […]. Subsequently 2.5 μL of the “kinase detection reagent” (1.2 fold more concentrated than recommended by the producer) were added, the resulting mixture was incubated at 22° C. for 1 h and then the luminescence measured with a suitable measurement instrument (e.g. Viewlux™ from Perkin-Elmer). The amount of emitted light was taken as a measure for the amount of ADP generated and thereby for the activity of the CSNK1A1.

[2] = molecular target: T1, full-length human CSNK1A1; assay: CSNK1A1 High ATP Assay (ADP-Glo, 1 mM ATP); conditions: Table 3, read-out: CSNK1A1 high ATP assay IC50 [mol/l] (median);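 also: 30 min kinase reaction at 22 °C with 100 µM peptide substrate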
Description: CSNK1A1-inhibitory activity of compounds of the present invention in presence of 1 mM adenosine-tri-phosphate (ATP) was quantified employing the CSNK1A1-high-ATP-assay as described in the following paragraphs. In essence, the enzyme activity is measured by quantification of the adenosine-di-phosphate (ADP), which is generated as a co-product of the enzyme reaction, via the “ADP-Glo™ Kinase Assay” kit from the company Promega. This detection system works as follows: In a first step the ATP not consumed in the kinase reaction is quantitatively converted to cAMP employing an adenylate cyclase (“ADP-Glo-reagent”), then the adenylate cyclase is stopped and the ADP generated in the kinase reaction converted to ATP which generates in a luciferase-based reaction a glow-luminescence signal (“Kinase Detection Reagent”).
as §1
For the assay 50 nl of a 100 fold concentrated solution of the test compound in DMSO was pipetted into a white low volume 384-well microtiter plate (Greiner Bio-One, Frickenhausen, Germany), 2 μL of a solution of CSNK1A1 in aqueous assay buffer [50 mM HEPES pH 7.5, 10% (v/v) glycerol, 10 mM MgCl2, 50 mM NaCl, 1 mM dithiothreitol, 0.01% (w/v) bovine serum albumin, 0.01% (v/v) Triton X-100] were added and the mixture was incubated for 15 min at 22° C. to allow pre-binding of the test compounds to the enzyme before the start of the kinase reaction. […] The concentration of CSNK1A1 was adjusted depending of the activity of the enzyme lot and was chosen appropriate to have the assay in the linear range, a typical concentration is about 0.4 ng/μL. The reaction was stopped by the addition of 2.5 μL of “ADP-Glo-reagent” (1:1.5 fold diluted with water) and the resulting mixture was incubated at 22° C. for 1 h to convert the ATP not consumed in the kinase reaction completely […]. Subsequently 2.5 μL of the “kinase detection reagent” (1.2 fold more concentrated than recommended by the producer) were added, the resulting mixture was incubated at 22° C. for 1 h and then the luminescence measured with a suitable measurement instrument (e.g. Viewlux™ from Perkin-Elmer). The amount of emitted light was taken as a measure for the amount of ADP generated and thereby for the activity of the CSNK1A1.

[3] = molecular target: T2, wild-type Epidermal Growth Factor Receptor (EGFR) (Homo sapiens, UniProt P00533); assay: WT-EGFR Kinase Assay (TR-FRET, 2 mM ATP)
T2 construct: a fragment of human EGFR (amino acids R669 to A1210); made in house; host or cells: Sf9 insect cells
From the text: Inhibitory activity of compounds of the present invention against wild-type Epidermal Growth Factor Receptor (EGFR) was quantified employing the TR-FRET based EGFR assay as described in the following paragraphs.
Recombinant fusion protein of N-terminal Glutathion-S-Transferase (GST) and a fragment of human EGFR (amino acids R669 to A1210), expressed in Sf9 insect cells and purified via affinity chromatography using Glutathion Sepharose as described above, was used as kinase. As substrate for the kinase reaction the biotinylated peptide biotin-Ahx-[…] (C-terminus in amide form) was used which can be purchased e.g. form the company Biosynthan GmbH (Berlin-Buch, Germany).
For the assay 50 nl of a 100 fold concentrated solution of the test compound in DMSO was pipetted into either a black low volume 384 well microtiter plate or a black 1536 well microtiter plate (both Greiner Bio-One, Frickenhausen, Germany), 2 μL of a solution of EGFR in aqueous assay buffer [50 mM Hepes pH 7.0, 10 mM MgCl2, 1 mM dithiothreitol, 0.5 mM EGTA, 0.3 mM activated sodium ortho-vanadate, 0.005% (w/v) bovine serum albumin, 0.005% (v/v) Tween-20] were added and the mixture was incubated for 15 min at 22° C. to allow pre-binding of the test compounds to the enzyme before the start of the kinase reaction. […] The concentration of EGFR was adjusted depending of the activity of the enzyme lot and was chosen appropriate to have the assay in the linear range, typical concentration was 7.6 pg/μL. The reaction was stopped by the addition of 3 μL of a solution of HTRF detection reagents (83.3 nM streptavidine-XL665 [Cisbio Bioassays, Codolet, France] and 1.67 nM PT66-Tb-Cryptate, a terbium-cryptate labelled anti-phospho-tyrosine antibody from Cisbio Bioassays [instead of the PT66-Tb-cryptate PT66-Eu-Chelate from Perkin Elmer can also be used]) in an aqueous EDTA-solution (133.3 mM EDTA, 0.2% (w/v) bovine serum albumin in 50 mM HEPES pH 7.5).
The resulting mixture was incubated 1 h at 22° C. to allow the binding of the biotinylated phosphorylated peptide to the streptavidine-XL665 and the PT66-Tb-Cryptate. Subsequently the amount of phosphorylated substrate was evaluated by measurement of the resonance energy transfer from the PT66-Tb-Cryptate to the streptavidine-XL665. Therefore, the fluorescence emissions at 620 nm and 665 nm after excitation at 337 nm were measured in a HTRF reader, e.g. a Pherastar (BMG Labtechnologies, Offenburg, Germany) or a Viewlux (Perkin-Elmer). The ratio of the emissions at 665 nm and at 622 nm was taken as the measure for the amount of phosphorylated substrate.

[4] = EGFR Wildtyp 2 mM ATP IC50 [mol/l] (median), Table 4

T1 sequence (P48729 whole entry): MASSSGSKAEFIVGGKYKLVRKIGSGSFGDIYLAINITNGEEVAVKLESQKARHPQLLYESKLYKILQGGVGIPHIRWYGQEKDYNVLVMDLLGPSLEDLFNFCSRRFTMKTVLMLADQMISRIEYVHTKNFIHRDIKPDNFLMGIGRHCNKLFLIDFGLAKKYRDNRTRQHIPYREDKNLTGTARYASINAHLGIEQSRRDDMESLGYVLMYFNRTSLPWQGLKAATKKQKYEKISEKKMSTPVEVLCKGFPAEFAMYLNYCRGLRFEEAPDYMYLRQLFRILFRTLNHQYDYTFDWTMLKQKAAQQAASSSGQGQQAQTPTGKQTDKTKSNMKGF
T2 sequence (P00533 669-1210): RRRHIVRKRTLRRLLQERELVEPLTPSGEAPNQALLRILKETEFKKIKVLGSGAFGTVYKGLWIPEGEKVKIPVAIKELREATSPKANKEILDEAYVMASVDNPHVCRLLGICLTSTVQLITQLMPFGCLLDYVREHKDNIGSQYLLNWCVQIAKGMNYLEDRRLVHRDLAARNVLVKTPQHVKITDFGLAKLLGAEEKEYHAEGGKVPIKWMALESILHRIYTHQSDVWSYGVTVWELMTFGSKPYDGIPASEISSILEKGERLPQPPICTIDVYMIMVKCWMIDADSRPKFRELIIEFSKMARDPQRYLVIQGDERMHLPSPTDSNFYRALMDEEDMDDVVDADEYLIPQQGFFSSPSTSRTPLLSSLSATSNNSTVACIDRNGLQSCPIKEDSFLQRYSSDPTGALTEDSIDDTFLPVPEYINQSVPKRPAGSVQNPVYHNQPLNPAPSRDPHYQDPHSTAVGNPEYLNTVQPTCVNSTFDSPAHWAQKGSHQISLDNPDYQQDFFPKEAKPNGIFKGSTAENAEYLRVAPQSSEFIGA

O=C(Nc1cc(-c2[nH]c3c(OCC(F)F)ccnc3c2-c2ccccn2)ccn1)C(CC(F)F)c1ccc(F)cc1 (racemic) [Example 75, (2RS)—N-{4-[7-(2,2-difluoroethoxy)-3-(pyridin-2-yl)-1H-pyrrolo[3,2-b]pyridin-2-yl]pyridin-2-yl}-4,4-difluoro-2-(4-fluorophenyl)butanamide]
pIC50 [1]: 8.36
pIC50 [2]: 8.36
pIC50 [3, 4]: < 4.70

O=C(Nc1cc(-c2[nH]c3c(OCC(F)F)ccnc3c2-c2ccccn2)ccn1)C(CC(F)F)c1ccc(F)cc1 (single isomer, unassigned) [Example 76, (2R or S)—N-{4-[7-(2,2-difluoroethoxy)-3-(pyridin-2-yl)-1H-pyrrolo[3,2-b]pyridin-2-yl]pyridin-2-yl}-4,4-difluoro-2-(4-fluorophenyl)butanamide]
pIC50 [1]: 8.53
pIC50 [2]: 8.53
pIC50 [3, 4]: < 4.70

O=C(Nc1cc(-c2[nH]c3c(OCC(F)F)ccnc3c2-c2ccccn2)ccn1)C(CC(F)F)c1ccc(F)cc1 (single isomer, unassigned) [Example 77, (2R or S)—N-{4-[7-(2,2-difluoroethoxy)-3-(pyridin-2-yl)-1H-pyrrolo[3,2-b]pyridin-2-yl]pyridin-2-yl}-4,4-difluoro-2-(4-fluorophenyl)butanamide]
pIC50 [1]: 8.14
pIC50 [2]: 8.14
pIC50 ([3]; read-out: EGFR Wildtyp 2 mM ATP IC50 [mol/l] (median), Table 4): < 4.70
